Measurements: paper PMC12501029, “Discovery of a CNS active GSK3 degrader using orthogonally reactive linker screening” (Nature Communications, 2025)

Tested on: GSK3β Ser9 and GSK3β Tyr216 phosphorylation
Experiment: GSK3β phosphorylation (Ser9, Tyr216) immunoblot in HEK293 cells
Format: cell-based, human
Details: 10 nM 24, 27; 10 nM and 1 µM 29; 30 min
Description: HEK293, HAP1, HAP1 CRBN KO and SH-SY5Y cells were plated in either 6 cm plates or 6-well plates at varying densities (0.5–0.7 × 10^6 cells per plate or wells), and MEF cells were plated in 10 cm plates (1–1.2 × 10^6 cells per plate) depending on experimental set up in respective culturing condition as described above. Stock solutions of compounds were prepared as 10 mM in DMSO (Sigma–Aldrich). Working dilutions were made up fresh in DMSO and culturing media or differentiation media was refreshed prior to any compound treatments. For mode of action studies, cells were pre-treated with inhibitors for 2 h: 1 µM MG132 (Merck, 474790-5 mg), 1 µM MLN4924 (Merck, 5054770001) or 1 µM GSK3 inhibitor (compound 29), before treating with PROTACs for 2, 4 or 24 h as indicated in figure legends. Cells were washed twice with ice-cold PBS (Gibco), harvested in PBS and pelleted, cells were resuspended in RIPA buffer supplemented with complete EDTA-free protease inhibitor cocktail (Roche,11873580001, 1/10 mL) and phosSTOP (Roche, 04906845001, 1 tablet/10 mL) for 20 min lysis on ice then cleared via centrifugation at 16,000 × g, 4 °C for 20 min. SH-SY5Y cells were lysed in 500 µL ice-cold lysis buffer (25 mM Tris-HCl (pH 7.4), 50 mM NaF, 100 mM NaCl, 1 mM EDTA, 4 mM EGTA, 1% (v/v) Triton-X-100, 0.09% (w/v) sucrose, 10 mM sodium pyrophosphate, 10 mM sodium vanodate, 0.1% (v/v) β-mercaptoethanol, supplemented with complete mini protease inhibitor tablet (Sigma; 1 tablet/ 10 mL buffer)). Lysates were flash frozen, thawed and centrifugated at 16,000 × g, 4 °C for 20 min. Following clearance of lysates, protein concentrations were determined by the BCA assay (Fisher Scientific, 23225) or Bradford assay (Bio-rad). Five to thirty micrograms of protein from lysates were prepared in 4×LDS buffer (Thermo Fisher) and 50 mM dithiothreitol (DTT) denaturated at 95 °C for 5 min. Proteins were separated on NuPAGE 4–12% Bis-Tris gels (Invitrogen) or 4–12% Novex Tris-glycine gels (Invitrogen) in MOPS buffer (Invitrogen) and transferred onto nitrocellulose membranes using an iBlot3 system (Thermo Fisher Scientific) or nitrocellulose membranes (Cytiva) in cold tris-glycine-methanol buffer (25 mM Tris (pH 7.5), 192 mM glycine, 20% (v/v) methanol). Membranes were blocked with either 5% fat-free milk (Marvel) or 1% (w/v) BSA (Sigma) in TBS-T (20 mM Tris (pH 7.5), 150 mM NaCl, 0.1% (v/v) Tween-20 (Sigma)) at room temperature for 30 min, or in the case of SH-SY5Y assays, 1 h, before incubating with primary antibodies overnight at 4 °C on a rocker. […]

Question: How did the “impact on GSK3β Ser9 or GSK3β Tyr216 phosphorylation prior to degradation” value turn out when Cn1nc(N2CCC(=O)NC2=O)c2ccc(CN3CCN(Cc4ccc(-c5cn(-c6ccc(-c7cn8nccc(C(=O)Nc9cnccc9N9CCOCC9)c8n7)cc6)nn5)nc4)CC3)cc21 [compound 24] was run?
Answer: The value was “no impact observed”.
